Experimental data taken from US7638486B2, “Method for promoting hard tissue formation” (Acologix, Inc., priority 2005, dated 2009).

Legend:
[1] = tested on: hard tissue forming cells; assay: Biological activities for the purpose of the invention (test not specified)
hemi-calvariae [2] = conditions: Middleton-Hardie et al., ASBMR 2005; cited from earlier work
[3] = tested on: primary osteoblasts collected from fetal mouse calvaria; assay: Alkaline phosphatase (ALP) activity in primary osteoblasts under suboptimal BMP-2; assay type: cell-based
Method: The peptide of SEQ ID No. 8 was added to this culture system at 0, 0.2, 0.4, 1.0, 2.0, and 4.0 μM. The levels of ALP were evaluated on days 0, 3, and 7.

COX-2 mRNA [4] = conditions: Nagel et al., Journal of Cellular Biochemistry, 2004; cited from earlier work
[5] = tested on: MC3T3-E1 subclone 4 cells; assay: BMP-2 stimulated PGE2 production by MC3T3 cells (ELISA); assay type: cell-based, mouse; conditions: 24 hours, with BMP-2
Method: Methods: MC3T3-E1 subclone 4 cells are neonatal mouse derived calvarial preosteoblasts with fibroblast morphology. […] For this experiment the MC3T3 cells were plated 10^5 cells per well in 24 well plates in growth medium (alpha MEM+1 mM sodium pyruvate+10% fetal bovine serum (FBS)). After 24 hours of culture the media was removed and replaced with assay media (alphaMEM+1 mM sodium pyruvate+2% FBS) containing the test substances. Each test group utilized 4 wells. After incubation for a further 24 hours the media was removed and the levels of PGE2 were determined using an ELISA (R&D Systems).

dorsal muscle of mice = assay: Ectopic bone formation in mouse dorsal muscle with implanted polymer; assay type: in vivo, ICR mice
Description: It has been known that BMP causes bone formation when administered or implanted in mammals when given. The activity can be enhanced when given in the appropriate delivery vehicle.
The mice were sacrificed 3 weeks later and the newly formed bones were isolated for evaluation using soft X-ray radiograph and bone mineral density determination.

COX-2 mRNA [6] = assay: Gene expression microarray analysis in Clonetics hMSC cells; assay type: cell-based, human; conditions: peptide 1000 ng/ml
Method: Materials and Methods: The effect of the peptide of SEQ ID No. 8 treatment on gene expression was assessed in the Clonetics hMSC cells using gene expression microarray analysis as previously described (Locklin et al., 2001). Briefly, cells were plated in five T-150 vented flasks at a density of 1.0×10^6 cells per flask in growth medium and cultured at 37° C. for 48 hours. Flasks containing either vehicle alone or the peptide of SEQ ID No. 8 (1000 ng/ml) were cultured for 24 hr or for 48 h in standard differentiation medium. At each time point, the vehicle and treatment flasks were trypsinized, cells removed and total RNA was extracted for analysis via the Qiagen Rneasy Kit (Qiagen). 8 μg of total RNA were amplified and biotin labeled. The mixture was hybridized to a U95A human gene expression microarray (Affymetrix) containing probes for 12,600 human genes. The chips were then washed, stained with phycoerythrin-streptavidin and read with an Affymetrix scanner. Hybridization intensity values to mRNA frequency were calculated in molecules per million. Analysis of intensity values was conducted using Spotfire Decision Site (Somerville, Mass.) software.

hemi-calvariae [7] = assay: Mouse calvaria organ culture assay (PGE2 ELISA, histology); assay type: cell-based, Swiss Webster mice; conditions: peptide 1, 10, 100 μg/mL daily for seven days
Description: Methods: Calvarial organ cultures have been used for many years to study the regulation of bone formation and bone resorption. An advantage of this method compared to in vivo studies is the absence of confounding effects (such as hormonal and mechanical influences) meaning a more direct effect of the test substances on bone tissue can be determined. Also compared to isolated cell systems, interrelationships between the different cell types in the bone and between these cells and the bone matrix are preserved.
Briefly, hemi-calvariae were isolated from 4 day old Swiss Webster mice and incubated in media on steel mesh grids. The peptide of SEQ ID NO. […] Samples of the conditioned media were collected daily for analysis of PGE2 concentration (R&D Systems ELISA kit). At the end of the culture the bones were analyzed for new bone formation and number of osteoblasts using histology.

human mesenchymal cells = assay: PGE2 in human mesenchymal cells in culture; assay type: cell-based; conditions: peptide alone

## TDLQERGDNDISPFSGDGQPFKD [SEQ ID No. 8]
[1]
  Biological activities relative to other sequences: highest activities
hemi-calvariae [2]
  production of PGE2 in mouse calvaria organ culture assay: dose dependently upregulated
[3]; 2 μM peptide with 25 ng/mL BMP-2
  ALP activity increase as compared with BMP-2 treated cells without the peptide: ~2 times
[3]; BMP-2 25 ng/mL plus peptide 0.2-4.0 μM, dose dependent
  ALP activity in osteoblastic cells: significantly increased
COX-2 mRNA [4]
  COX-2 in human mesenchymal stem cells: upregulated
[5]
  BMP-2 induced PGE2 production: increases
Dorsal muscle of mice; 3 μg BMP-2 in 30 mg polymer, peptide 50, 250 or 1250 μg, three weeks
  Effect of the peptide on BMP-2 bone formation (size and mineral density of ectopic ossicles): significant enhancement
Dorsal muscle of mice; 3 μg rhBMP-2, varying amounts of peptide
  Bone formation when peptide added to suboptimal dose of rhBMP-2: significant and dose dependent increase
Dorsal muscle of mice; 5 μg BMP-2 in 30 mg polymer, peptide 50, 250 or 1250 μg, three weeks
  Efficacy of the peptide on bone formation (size and mineral density of ectopic ossicles): unclear
COX-2 mRNA [6]
  COX-2 mRNA increase (summary in discussion): ~3 fold
COX-2 mRNA [6]; 24 h
  COX-2 mRNA increase: 3.6 fold
COX-2 mRNA [6]; 48 h
  COX-2 mRNA increase: 2.2 fold
hemi-calvariae [7]
  PGE2 production: significant increases
hemi-calvariae [7]; histology
  bone cell density: significant increases
  osteoblast surface: significant increases
  parameters of new bone formation: significant increases
Human mesenchymal cells
  PGE2 increase: did not result in a significant increase
